Entries after “also recorded” stand apart in the source; their conditions may differ.
Test system: hexosamine biosynthesis pathway (HBP)
Experiment: Metabolomics of hearts, HFpEF vs HFpEF+Adropin
Format: in vivo, C57BL/6J mice
Details: heart; for cardiac hexose and pyruvate levels: Adropin-treated HFpEF mice; for hexosamine biosynthesis pathway (metabolites related to UDP-GlcNAc biosynthesis), untargeted BioCyc pathway analysis: vehicle-treated vs adropin-treated HFpEF groups
Excerpt: Animal Care and Use. Male C57BL/6J 8-week-old mice were obtained from the Jackson Laboratory and maintained on chow for 4 weeks to acclimate to their new environment. Animals were housed in the University of Pittsburgh animal facility under standard conditions with ad libitum access to water and food and maintained on a constant 12-hour light/dark cycle. At 12 weeks of age, the mice were exposed to normal chow (Chow; 60% carbohydrate, 26% protein, 14% fat), or a combination of high-fat diet (HFD; 20% carbohydrate, 20% protein, 60% fat) plus No-nitro-L-arginine methyl ester (L-NAME: 0.5 g/L) supplemented in their drinking water after adjusting the pH to 7.4 with 1N NaOH to induce HFpEF [10]. For cohort 1, the mice were subject to the HFpEF diet for 15 weeks. For cohort 2, after 8 weeks of diet, mice were randomly assigned to a control or treatment group receiving daily intraperitoneal injections of either vehicle or recombinant adropin at 450 nmol/kg animal weight prepared in PBS with 0.1% BSA for the remaining 5 weeks of the study. L-NAME supplemented drinking water was changed weekly and adropin was made fresh and sterile filtered before each use.
Quantitative Metabolomics. Metabolic quenching and polar metabolite pool extraction was performed by adding ice cold 80% methanol (aqueous) at a ratio of 1:15 wt input tissue:vol. (13 C1)-creatinine, (D3)-taurine, (D3)-lactate and (D3)-alanine were added to the sample lysates as an internal standard for a final concentration of […]. Samples are homogenized using an MP Bio FastPrep system using Matrix D (ceramic sphere) for 60 seconds at 60 hz. The supernatant was then cleared of protein by centrifugation at 16,000 g. 2 μL of cleared supernatant was subjected to online LC-MS analysis. Analyses were performed by untargeted liquid chromatography-high-resolution mass spectrometry (LC-HRMS). Briefly, samples were injected via a Thermo Vanquish UHPLC and separated over a reversed phase. Thermo HyperCarb porous graphite column (2.1×100 mm, […]) maintained at 55° C. For the 20 min LC gradient, the mobile phase consisted of the following: solvent A (water/0.1% FA) and solvent B (ACN/0.1% FA). The gradient was the following: 0-1 min 1% B, increase to 15% B over 5 min, continue increasing to 98% B over 5 min, hold at 98% B for five min, re-equillibrate at 1% B for five min. The Thermo IDX tribrid mass spectrometer was operated in both positive and negative ion mode, scanning in ddMS2 mode (2 scans) from 70 to 800 m/z at 120,000 resolution with an AGC target of 2e5 for full scan, 2e4 for ms2 scans using HCD fragmentation at stepped 15, 35, 50 collision energies. Source ionization setting was 3.0 and 2.4 kV spray voltage, respectively, for positive and negative mode. Source gas parameters were 35 sheath gas, 12 auxiliary gas at 320° C., and 8 sweep gas. Calibration was performed prior to analysis using the Pierce™ FlexMix Ion Calibration Solutions. Integrated peak areas were then extracted manually using Quan Browser (Thermo Fisher Xcalibur ver. 2.7). Untargeted differential comparisons were performed using Compound Discoverer 3.0 to generate a ranked list of significant compounds with tentative identifications from BioCyc, KEGG, and internal compound databases. Purified standards were then purchased and compared in retention time, m/z, along with ms2 fragmentation patterns to validate the identity of significant hits.

For “Adropin: recombinant Adropin peptide hormone encoded by the ENHO gene; full-length (SEQ ID NO: 1) or cleaved product of amino acids 34-76 (SEQ ID NO: 2) (CHSRSADVDSLSESSPNSSPGPCPEKAPPPQKPSHEGSYLLQP)”, the “cardiac hexose and pyruvate levels” value was “trend towards decreased”, the “cardiac hexose and pyruvate levels” value (listed as adropin) was “trend towards restored” and the “abundance of metabolites used to generate UDP-GlcNAc (GlcNAc-6-P, uridine, coenzyme A)” value (relative to HFpEF mice) was “significant increase”. For the same substance, the “hexosamine biosynthesis pathway (metabolites related to UDP-GlcNAc biosynthesis), untargeted BioCyc pathway analysis” value was “major metabolomic differences; also recorded: modulated” and the “hexosamine biosynthesis pathway (metabolites related to UDP-GlcNAc biosynthesis), untargeted BioCyc pathway analysis” value (listed as adropin) was “major metabolomic difference; also recorded: inhibits”.

Reference: patent US20260091136A1, “USING ENHO GENE THERAPY TO TREAT CARDIOMETABOLIC DISEASE” (University of Pittsburgh-of the Commonwealth System of …, priority 2023, published 2026)
